Like-named read-outs stand apart in the source and are kept apart here. Values belong to the compound of their own block, whether it stands above or below them.
Columns and labels:
RhoC C20S = RhoC C20S (Homo sapiens, UniProt P08134, C20S); experiment: RhoC expression (Western) and RhoC activity assay in cells; type: cell-based; design: expressed in transfected cells; host or cells: human mammary epithelial (HME) cells; conditions: HME-C20S RhoC cells, 6-TG three days
Protocol: FIG. 14. Determination of cell invasiveness in the presence and absence of thiopurines and/or redox agents. […] Western blot analysis representing the total expression of RhoC in these cells also is shown. (B) Experimental procedures for the determination of the time-dependent motility of cells using the QCM Cell Invasion Assay kit in the presence and absence of 6-TG and DETA/NO are described elsewhere herein.
Cells were lysed in an extraction buffer containing 50 mM NaCl, 5 mM MgCl2, 1 mM ethylenediaminetetraacetic acid (EDTA), 0.1 mM diethylenetriaminepentaacetic acid (DTPA), and 0.1% NP40 in 150 mM TrisHCl (pH 8.0). The content of […] RhoC in cells then was determined by using Western analysis that relies on a monoclonal anti-RhoC antibody (Biocompare, South San Francisco, Calif.). To determine RhoC activity, the colorimetric RhoA activation assay Biochem Kit (Cytoskeleton, Denver, Colo.) was used essentially as described in the previous study (Hall et al. Neoplasia 10, 797-803 (2008)) except that the RhoC specific antibody (vide supra), instead of the RhoA antibody included in the assay kit, was used for this analysis.

Ras [1] = target: T1, Ras (Homo sapiens, UniProt P01112, G12V); experiment: Ras expression and activity in T24 / HT1080 cells; type: cell-based; conditions: T24 (or HT1080) cells, 6-TG 1 μM every 48 h and DETA/NO 10 μM every 20 h, longer than 10 days; FIG. 8
T1 construct: endogenous in cells; text also names HT1080
Protocol: (§1) FIG. 8. Examination of Ras and Raf-1 activity in T24 cells treated with various reagents. […] The total Raf-1 expression also was determined using an anti-Raf-1 antibody. Actin expression in cells was shown as controls.

SUM149 cells = experiment: MTT cell viability and caspase-3/8 assays; type: cell-based, human
From the text: FIG. 25. […] (B) Caspase-3/8 assay: the apoptotic activity of sample cells treated with the apoptotic inducer was set to be 100%, and other results were then expressed as normalized values against the mean value associated with the treatment with the apoptotic inducer. For both (A) and (B), all values represent the mean values and standard error values from triplicate measurements.

Rac1 [2] = target: T2, Rac1 (Homo sapiens, UniProt P63000); experiment: Competitive binding assay, [3H]GDP-loaded Rho protein titrated with 6-TGDP (FIG. 16A); design: made in house; host or cells: E. coli
Protocol: FIG. 16. Kinetic properties of RhoC with 6-TGDP in the presence or absence of a redox agent. All kinetic analyses are described elsewhere herein. (A) ^appKD values of Rac1, RhoA, RhoC, and RhoC C20S for 6-TGDP were estimated to be 7.9, 11.6, 11.8, and 11.2 μM, respectively. ^trueKD values of Rac1, RhoA, […] for 6-TGDP were then calculated to be 5.1, 10.8, 11.1, and 10.5 μM, respectively, by using a compensation equation, ^trueKD for 6-TGDP=^appKD for 6-TGDP/(1+[[^3H]GDP]/^trueKD for GDP) (Heo, J., and Hong, I. (2010) Biochemistry 49, 3965-3976), in conjunction with the values given. […] The GDP dissociation rates from RhoC C20S by NO, .NO2, and N2O3 were estimated to be 0.02×10^−3, 0.05×10^−3, and 0.04×10^−3 s^−1, respectively. […] (D) ^appKD values of RhoC for [^3H]GDP in the presence or absence of DTT were estimated to be 22.4 μM and […], respectively. ^appKD values of C20S RhoC for [^3H]GDP in the presence or absence of DTT were determined to be 24.8 μM and 25.2 μM, respectively. The regression values associated with these fits were >0.8595. All data points associated with vertical standard error bars shown in this figure are the mean values of triplicate measurements.
Transition metal-free assay buffer and vials as described in a previous study (Heo et al. Biochemistry 49, 3965-3976 (2010)) were used for all kinetic assays. The kinetic assay buffer contains the highest grade of 50 mM NaCl, 10 mM MgCl2, 1 mM EDTA, and 0.1 mM DTPA in 50 mM TrisHCl (pH 7.4). Before performance of any of the assays, all protein samples also were dialyzed with a metal-free buffer under anaerobic conditions. As with RhoA and Rac1 (Heo et al. J. Biol. Chem. 280, 31003-31010 (2005)), C20S RhoC were expressed in E. coli and purified using anionic and size exclusion columns.
(a) A competitive binding assay was performed to determine the binding affinity of Rho GTPase and 6-TGDP. The radiolabeled [^3H]GDP-loaded Rho protein (1 μM) was titrated with various concentrations of 6-TGDP. The titrated Rho protein sample then was spotted onto a nitrocellulose membrane. Each membrane was washed three times with the assay buffer, and radioactivity was determined using a Beckman-Coulter scintillation counter. The radioactivity of the sample (Rho protein-bound [^3H]GDP) was converted into, and thus plotted, as the fraction of mol GDP per mol total Rho protein. The apparent dissociation constant (^appKD) of the Rho protein with [^3H]GDP in the presence of 6-TGDP was determined by using Prism software to fit the titration curve to a hyperbola.

A7r5 cells = experiment: Viability / cytotoxicity of A7r5 cells; type: cell-based, rat; conditions: 5 days of treatment; FIG. 24
From the text: FIG. 24. Effects of 6- and 8-TG on A7r5 cells. Treatment of cells with 6- or 8-TG is described in FIGS. 19 and 21. The image associated with the effect of 6- or 8-TG was taken after 5 days of treatment.

Ras [3] = experiment: Ras expression and activity in T24 / HT1080 cells; type: cell-based, human; conditions: T24 and HT1080 cells, 8-TG 1 μM with NO donor; not shown
Protocol: as §1

RhoA = target: T3, RhoA (Homo sapiens, UniProt P61586); conditions: determined previously; read-out: trueKD GDP; cited from earlier work
T3 construct: made in house; host or cells: E. coli

Rac1 [4] = target: T2, Rac1; design: made in house; host or cells: E. coli; conditions: known value (Morgan et al.); read-out: trueKD for GDP; cited from earlier work

Sequence of RhoC C20S (P08134 whole entry C20S): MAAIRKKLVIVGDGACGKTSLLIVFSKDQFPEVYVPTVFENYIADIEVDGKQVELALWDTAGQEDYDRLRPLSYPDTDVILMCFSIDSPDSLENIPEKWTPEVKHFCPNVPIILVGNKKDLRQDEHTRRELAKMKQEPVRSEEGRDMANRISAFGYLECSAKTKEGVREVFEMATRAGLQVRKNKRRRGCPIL
T3 sequence (P61586 whole entry, species assumed): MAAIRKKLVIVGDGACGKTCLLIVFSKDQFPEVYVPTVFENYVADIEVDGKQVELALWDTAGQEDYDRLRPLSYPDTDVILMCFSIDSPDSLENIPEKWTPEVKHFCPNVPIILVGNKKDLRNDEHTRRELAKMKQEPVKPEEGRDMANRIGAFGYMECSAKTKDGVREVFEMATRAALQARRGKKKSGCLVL

activity and total expression of RhoC C20S (RhoC C20S): unchanged
SMILES: Nc1nc2nc[nH]c2c(=S)[nH]1 [6-TG, 6-thioguanine]
Ras inactivation (Ras [1]): significant amount of Ras (per cell mass) was inactivated | apoptotic effect (caspase, FIG. 25B) (SUM149 cells; 6-TG): minimal | viability and caspase activity (SUM149 cells; 6-TG and DETA/NO, FIG. 25): minimally affected | cell viability (MTT, FIG. 25A) (SUM149 cells; 6-TG for 3 days): minimally affected

Kd (Rac1 [2]; [3H]GDP-loaded Rho protein 1 μM titrated with 6-TGDP, read-out: appKD for 6-TGDP): 7.9 µM | Kd (Rac1 [2]; calculated by compensation equation, read-out: trueKD for 6-TGDP): 5.1 µM
SMILES: Nc1nc2c(ncn2[C@@H]2O[C@H](COP(=O)(O)OP(=O)(O)O)[C@@H](O)[C@H]2O)c(=S)[nH]1 [6-TGDP, 6-thioguanosine diphosphate]

SMILES: Nc1nc2[nH]c(S)nc2c(=O)[nH]1 [8-TG, 2-amino-8-mercapto-1H-purin-6(9H)-one]
viability / cytotoxicity of A7r5 cells (A7r5 cells): did not alter the viability | expression and activity of Ras (Ras [3]): virtually unchanged

SMILES: Nc1nc2c(ncn2[C@@H]2O[C@H](COP(=O)(O)OP(=O)(O)O)[C@@H](O)[C@H]2O)c(=O)[nH]1 [GDP]
Kd (RhoA): 13 µM | Kd (Rac1 [4]): 1.8 µM

From patent US8729047B2, “Compositions for inhibiting redox-sensitive GTPases” (Board of Regents, The University of Texas System, priority 2010, dated 2014)
